Measured values reported in ChEMBL document CHEMBL6114934, “Guaiacol-chalcone and nitroguaiacol-chalcone derivatives: In vitro and in silico antibacterial evaluation” (2025).
In brackets after ≈: the same amount, converted by molar mass. Activity calls are given as the source filed them. The rule behind the calls is not given here.

Tests used:
[1] = system: Pseudomonas aeruginosa; test: Antibacterial activity against Pseudomonas aeruginosa at 256 ug/ml by broth microdilution method; format: functional, organism-based; details: dose 256.0 µg/ml
[2] = system: Staphylococcus aureus; test: Antibacterial activity against Staphylococcus aureus at 256 ug/ml by broth microdilution method; format: functional, organism-based; details: dose 256.0 µg/ml
[3] = system: Klebsiella pneumoniae; test: Antibacterial activity against Klebsiella pneumoniae at 256 ug/ml by broth microdilution method; format: functional, organism-based; details: dose 256.0 µg/ml
[4] = system: Staphylococcus aureus; test: Antibacterial activity against methicillin-resistant Staphylococcus aureus by broth microdilution method; format: functional
[5] = system: Klebsiella aerogenes; test: Antibacterial activity against Klebsiella aerogenes at 256 ug/ml by broth microdilution method; format: functional, organism-based; details: dose 256.0 µg/ml
[6] = system: Staphylococcus aureus; test: Antibacterial activity against Staphylococcus aureus by broth microdilution method; format: functional
[7] = system: Acinetobacter baumannii; test: Antibacterial activity against Acinetobacter baumannii at 256 ug/ml by broth microdilution method; format: functional, organism-based; details: dose 256.0 µg/ml
[8] = system: Staphylococcus aureus; test: Antibacterial activity against methicillin-resistant Staphylococcus aureus; format: functional
[9] = system: Staphylococcus aureus; test: Antibacterial activity against Staphylococcus aureus; format: functional

SMILES | Activity [1] | Activity [2] | Activity [3] | MIC [4] [µg/mL] | Activity [5] | MIC [6] [µg/mL] | Activity [7] | MIC [8] [µg/mL] | MIC [9] [µg/mL]
COc1cc(C(=O)/C=C/c2cccc(Cl)c2)cc([N+](=O)[O-])c1O | inactive | Active | inactive | 64 (≈ 192 µM) | inactive | 16 (≈ 47.9 µM) | inactive |  | 
O=C(/C=C/c1ccc(Cl)c(Cl)c1)c1cc(O)c(O)c([N+](=O)[O-])c1 |  |  |  |  |  |  |  | 16 (≈ 45.2 µM) | 1 (≈ 2.82 µM)
CCOc1ccc(/C=C/C(=O)c2ccc(O)c(OC)c2)cc1 | inactive | Active | inactive | 32 (≈ 107 µM) | inactive | 16 (≈ 53.6 µM) | inactive |  | 
COc1cc(C(=O)/C=C/c2cccc(C(F)(F)F)c2)ccc1O | inactive | inactive | inactive |  | inactive |  | inactive |  | 
COc1cc(C(=O)/C=C/c2cccc(F)c2)cc([N+](=O)[O-])c1O | inactive | Active | inactive | 64 (≈ 202 µM) | inactive | 32 (≈ 101 µM) | inactive |  | 
COc1cc(C(=O)/C=C/c2ccc(Cl)c(Cl)c2)ccc1O | inactive | inactive | inactive |  | inactive |  | inactive |  | 
COc1cc(C(=O)/C=C/c2ccc(Cl)cc2Cl)ccc1O | inactive | inactive | inactive |  | inactive |  | inactive |  | 
COc1cc(C(=O)/C=C/c2ccc(Cl)c(Cl)c2)cc([N+](=O)[O-])c1O | inactive | Active | inactive | 8 (≈ 21.7 µM) | inactive | 8 (≈ 21.7 µM) | inactive |  | 
COc1cc(C(=O)/C=C/c2cccc(C(F)(F)F)c2)cc([N+](=O)[O-])c1O | inactive | Active | inactive | 64 (≈ 174 µM) | inactive | 32 (≈ 87.1 µM) | inactive |  | 
COc1cc(C(=O)/C=C/c2ccc(F)cc2)cc([N+](=O)[O-])c1O | inactive | Active | inactive | 64 (≈ 202 µM) | inactive | 64 (≈ 202 µM) | inactive |  | 
COc1cc(C(=O)/C=C/c2ccc([N+](=O)[O-])cc2)cc([N+](=O)[O-])c1O | inactive | Active | inactive | 64 (≈ 186 µM) | inactive | 32 (≈ 92.9 µM) | inactive |  | 
COc1cc(C(=O)/C=C/c2cccc(F)c2)ccc1O | inactive | inactive | inactive |  | inactive |  | inactive |  | 
COc1cc(C(=O)/C=C/c2ccc(Cl)cc2Cl)cc([N+](=O)[O-])c1O | inactive | Active | inactive | 256 (≈ 695 µM) | inactive | 256 (≈ 695 µM) | inactive |  | 
COc1cc(C(=O)/C=C/c2ccc(Br)cc2F)ccc1O | inactive | inactive | inactive |  | inactive |  | inactive |  | 
COc1cc(C(=O)/C=C/c2ccc(SC)cc2)ccc1O | inactive | inactive | inactive |  | inactive |  | inactive |  | 
COc1cc(C(=O)/C=C/c2ccc(Cl)cc2)ccc1O | inactive | inactive | inactive |  | inactive |  | inactive |  | 
COc1cc(C(=O)/C=C/c2ccc(Cl)cc2)cc([N+](=O)[O-])c1O | inactive | Active | inactive | 32 (≈ 95.9 µM) | inactive | 16 (≈ 47.9 µM) | inactive |  | 
COc1cc(C(=O)/C=C/c2ccc(F)cc2)ccc1O | inactive | inactive | inactive |  | inactive |  | inactive |  | 
COc1cc(C(=O)/C=C/c2cccc(Cl)c2)ccc1O | inactive | inactive | inactive |  | inactive |  | inactive |  | 
CC(=O)N1N=C(c2cc(O)c(O)c([N+](=O)[O-])c2)CC1c1ccc(Cl)cc1 (centres undefined) |  |  |  |  |  |  |  | 32 (≈ 85.2 µM) | 0.5 (≈ 1.33 µM)
COc1cc(C(=O)/C=C/c2ccc(SC)cc2)cc([N+](=O)[O-])c1O | inactive | Active | inactive | > 256 | inactive | 128 (≈ 371 µM) | inactive |  | 
